Results published in ChEMBL document CHEMBL4130357, “Developing potential agents against atherosclerosis: Design, synthesis and pharmacological evaluation of novel dual inhibitors of oxidative stress and Squalene Synthase activity” (Eur J Med Chem, 2017).
Activity calls are given as the source filed them. No cut-off for these calls is given here.

Legend:
Squalene synthase = target: T1, Squalene synthase (Rattus norvegicus, UniProt Q02769); experiment: Inhibition of SQS in rat microsomes using [3H]-FPP as substrate preincubated for 10 mins followed by substrate addition measured after 30 mins by scintillation counting
T1 sequence (Q02769 whole entry): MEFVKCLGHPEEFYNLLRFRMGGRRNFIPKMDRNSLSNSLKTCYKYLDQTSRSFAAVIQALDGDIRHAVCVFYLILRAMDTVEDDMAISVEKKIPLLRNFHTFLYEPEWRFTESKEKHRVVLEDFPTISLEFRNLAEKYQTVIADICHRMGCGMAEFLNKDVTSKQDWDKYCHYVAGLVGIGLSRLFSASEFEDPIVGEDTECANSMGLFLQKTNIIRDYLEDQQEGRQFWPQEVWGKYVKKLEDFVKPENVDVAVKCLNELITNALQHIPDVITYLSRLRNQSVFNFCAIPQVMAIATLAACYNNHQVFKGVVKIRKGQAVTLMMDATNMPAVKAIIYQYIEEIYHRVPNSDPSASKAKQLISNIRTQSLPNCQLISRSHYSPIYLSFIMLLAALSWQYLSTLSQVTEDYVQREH

Liver = experiment: Antioxidant activity in heat-inactivated Fischer-344 rat hepatic microsomes assessed as protection against Fe2+/ascorbate-induced lipid peroxidation after 45 mins by TBAR-based spectrophotometry; assay type: functional, microsome; settings: Fischer-344, Liver, 0.75 h
[1] = Antioxidant activity assessed as DPPH radical scavenging activity measured at 30 to 60 mins by UV-Visible spectrophotometric method; assay type: functional
[2] = target: T2, Prostaglandin G/H synthase 2 (Homo sapiens) (UniProt P35354); experiment: Inhibition of recombinant human COX2 at 50 uM using arachidonic acid as substrate by ELISA
T2 sequence (whole entry): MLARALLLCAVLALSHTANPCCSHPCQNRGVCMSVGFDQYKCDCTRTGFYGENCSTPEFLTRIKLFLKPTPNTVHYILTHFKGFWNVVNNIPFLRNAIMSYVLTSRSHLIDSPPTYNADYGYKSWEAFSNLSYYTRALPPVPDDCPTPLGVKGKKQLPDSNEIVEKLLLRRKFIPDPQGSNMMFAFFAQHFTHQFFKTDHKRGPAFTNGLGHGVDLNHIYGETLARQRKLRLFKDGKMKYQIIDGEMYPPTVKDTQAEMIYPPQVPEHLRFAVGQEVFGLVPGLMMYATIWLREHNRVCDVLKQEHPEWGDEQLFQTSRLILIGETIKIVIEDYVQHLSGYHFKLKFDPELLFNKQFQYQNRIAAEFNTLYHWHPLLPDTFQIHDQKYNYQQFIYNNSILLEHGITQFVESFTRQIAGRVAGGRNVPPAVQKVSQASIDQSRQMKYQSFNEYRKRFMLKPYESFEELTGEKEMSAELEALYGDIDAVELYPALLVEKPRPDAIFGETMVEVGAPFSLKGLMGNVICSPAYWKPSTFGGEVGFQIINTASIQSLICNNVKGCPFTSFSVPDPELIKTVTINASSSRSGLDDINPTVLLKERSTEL

[3] = target: T3, Prostaglandin G/H synthase 1 (Ovis aries) (UniProt P05979); experiment: Inhibition of ovine COX1 at 50 uM using arachidonic acid as substrate by ELISA
T3 sequence (whole entry): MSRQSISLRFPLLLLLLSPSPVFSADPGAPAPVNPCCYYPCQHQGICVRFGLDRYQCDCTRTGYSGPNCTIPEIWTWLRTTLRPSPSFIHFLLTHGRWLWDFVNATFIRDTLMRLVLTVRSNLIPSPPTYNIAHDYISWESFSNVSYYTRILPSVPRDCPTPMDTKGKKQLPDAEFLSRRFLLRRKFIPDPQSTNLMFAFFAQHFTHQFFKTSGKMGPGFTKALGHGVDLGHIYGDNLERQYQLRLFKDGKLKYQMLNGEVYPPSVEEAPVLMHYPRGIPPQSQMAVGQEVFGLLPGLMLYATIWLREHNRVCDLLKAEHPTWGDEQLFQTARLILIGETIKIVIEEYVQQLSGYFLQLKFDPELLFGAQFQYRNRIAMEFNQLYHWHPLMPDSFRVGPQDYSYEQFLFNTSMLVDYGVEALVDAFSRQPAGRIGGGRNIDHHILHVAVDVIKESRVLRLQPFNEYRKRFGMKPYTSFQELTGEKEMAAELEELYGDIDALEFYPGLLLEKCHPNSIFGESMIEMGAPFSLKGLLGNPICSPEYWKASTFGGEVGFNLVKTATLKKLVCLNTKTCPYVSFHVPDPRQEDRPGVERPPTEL

Mus musculus [4] = experiment: Antihyperlipidemic activity in HDF/STZ-induced obesity-diabetes type 2 SKH-2 mouse model assessed as decrease in plasma LDL levels at 56 umol/kg, ip administered twice daily measured on day 22 and day 53 relative to untreated control; assay type: functional; set-up: scale not given: the % may be the effect or the level left
Mus musculus [5] = experiment: Antihyperlipidemic activity in HDF/STZ-induced obesity-diabetes type 2 SKH-2 mouse model assessed as decrease in plasma triglyceride levels at 56 umol/kg, ip administered twice daily measured on day 22 and day 53 relative to untreated control; assay type: functional; set-up: scale not given: the % may be the effect or the level left
Mus musculus [6] = experiment: Anti-diabetic activity in HDF/STZ-induced obesity-diabetes type 2 SKH-2 mouse model assessed as reversal of body weight gain at 56 umol/kg, ip administered twice daily until 23 days measured once per week; assay type: functional, organism-based
Mus musculus [7] = experiment: Anti-diabetic activity in HDF/STZ-induced obesity-diabetes type 2 SKH-2 mouse model assessed as reversal of glucose increase at 56 umol/kg, ip administered twice daily until 53 days measured every 5 to 10 days from day 27 to 53; assay type: functional, organism-based
Mus musculus [8] = experiment: Antihyperlipidemic activity in HDF/STZ-induced obesity-diabetes type 2 SKH-2 mouse model assessed as increase in plasma HDL/LDL ratio at 56 umol/kg, ip administered twice daily measured on day 22 and day 53 relative to untreated control; assay type: functional
Mus musculus [9] = experiment: Antihypercholesterolemic activity in HDF/STZ-induced obesity-diabetes type 2 SKH-2 mouse model assessed as increase in plasma HDL levels at 56 umol/kg, ip administered twice daily measured on day 22 and day 53 relative to untreated control; assay type: functional, organism-based
Mus musculus [10] = experiment: Antihypercholesterolemic activity in HDF/STZ-induced obesity-diabetes type 2 SKH-2 mouse model assessed as decrease in plasma total cholestrol levels at 56 umol/kg, ip administered twice daily measured on day 22 and day 53 relative to untreated control; assay type: functional; set-up: scale not given: the % may be the effect or the level left
[11] = target: T3, Prostaglandin G/H synthase 1 (Ovis aries); experiment: Inhibition of ovine COX1 at 20 uM using arachidonic acid as substrate by ELISA
Mus musculus [12] = experiment: Anti-diabetic activity in HDF/STZ-induced obesity-diabetes type 2 SKH-2 mouse model assessed as reversal of body weight gain at 56 umol/kg, ip administered twice daily until 53 days measured once per week from 28th to 53 day post STZ challenge; assay type: functional, organism-based

SMILES | IC50 (Squalene synthase) [µM] | IC50 (Liver) [µM] | IC50 [1] [µM] | also measured
CN1CCOC(O)(c2ccc(/C=C/c3ccccc3)cc2)C1 (centres undefined) | 7 | 110 | > 400 | –
CN1CC(O)(c2ccccc2)Oc2ccccc21 (centres undefined) | 50 | 7.6 | 152 | –
CN1CC(O)(c2ccc(-c3ccccc3)cc2)OC2CCCCC21 (centres undefined) | – | 450 | > 400 | –
CN1CCOC(O)(c2ccc(-c3ccccc3)cc2)C1 (centres undefined) | 33 | 300 | > 400 | inhibition [2]: 100%; inhibition [3]: 38%
CC(C)(Sc1cc(C(C)(C)C)c(O)c(C(C)(C)C)c1)Sc1cc(C(C)(C)C)c(O)c(C(C)(C)C)c1 [PROBUCOL] | – | > 1000 | 234 | –
CN1CC(O)(c2ccc(-c3cc(C(C)(C)C)c(O)c(C(C)(C)C)c3)cc2)OC2CCCCC21 (centres undefined) | – | 5.9 | > 400 | Activity (Mus musculus [4]): 95%; Activity (Mus musculus [5]): inactive; Activity (Mus musculus [6]): Active; fold change (FC) (Mus musculus [8]): 7.5; Activity (Mus musculus [9]): inactive; Activity (Mus musculus [10]): 70%; Activity (Mus musculus [12]): Active
OC1(c2ccc(-c3ccccc3)cc2)CN2CCCCC2CO1 (centres undefined) | 35 | 350 | > 400 | –
CSc1ccccc1N(C)CC(=O)c1ccc(-c2ccccc2)cc1 | > 50 | > 1000 | > 400 | –
CN1CC(O)(c2ccc(/C=C/c3ccccc3)cc2)OC2CCCCC21 (centres undefined) | – | 45 | > 400 | inhibition [2]: inactive; inhibition [3]: inactive

Further compounds by falling IC50 (Liver), results first:

IC50 (Squalene synthase) [µM] | IC50 (Liver) [µM] | IC50 [1] [µM] | SMILES | also measured
16.5 | 83 | 271 | CN1CC(O)(c2ccc(-c3ccccc3)cc2)SC2CCCCC21 (centres undefined) | inhibition [11]: 89%
– | 42 | > 400 | OC1(c2ccc(/C=C/c3ccccc3)cc2)CN2CCCCC2CO1 (centres undefined) | inhibition [2]: inactive; inhibition [3]: inactive
8.5 | 15 | 44 | CN1CC(O)(c2ccc(-c3ccc(O)cc3)cc2)Sc2ccccc21 (centres undefined) | –
> 50 | 15 | 96 | Oc1ccc(/C=C/c2cc(O)cc(O)c2)cc1 [RESVERATROL] | –
14 | 14 | 171 | CN1CC(O)(c2ccc(-c3ccc(C(F)(F)F)cc3)cc2)Sc2ccccc21 (centres undefined) | –
28 | 8.2 | 183 | CN1CC(O)(c2ccccc2)Sc2ccccc21 (centres undefined) | –
> 50 | 6.5 | 34 | CN1CC(O)(c2ccc(-c3cc(C(C)(C)C)c(O)c(C(C)(C)C)c3)cc2)Sc2ccccc21 (centres undefined) | inhibition [2]: inactive; inhibition [3]: inactive; Activity (Mus musculus [4]): 65%; Activity (Mus musculus [5]): 55%; Activity (Mus musculus [6]): inactive; Activity (Mus musculus [7]): inactive; fold change (FC) (Mus musculus [8]): 3; Activity (Mus musculus [9]): inactive; Activity (Mus musculus [10]): 31%
> 50 | 4.9 | > 400 | CN1CC(O)(c2ccc(-c3ccccc3)cc2)Oc2ccc(-c3ccccc3)cc21 (centres undefined) | –
